Experimental data taken from PMC10534526 (Molecules, 2023).
Read-outs that look alike come from different tables or passages of the source.

How the values were obtained:
AGE formation = AGE formation inhibitory activity (glucose-mediated protein glycation of BSA, spectrofluorometric); type: biochemical; conditions: n = 3, 60°C, 24 h, read-out: AGE Inhibitory Activity (IC50, Mean ± SD)
Method: The compound PS10 with 4-methylpiperazine had better anti-glycating effects compared to the unsubstituted piperazine compound (PS6). […]
The synthesized compounds were assayed by the spectrofluorometric method for inhibition of glucose-mediated protein glycation. All the compounds and aminoguanidine (positive control) with different concentrations were evaluated in triplicate. […]
In vitro advanced glycation end-product (AGEs) formation inhibitory activity The assay for the ability of the synthesized compounds to inhibit the glucose-mediated protein glycation and the development of ﬂuorescent AGEs was performed. Different concentrations of various compounds were prepared by dissolving in DMSO. Anti-glycation assay was performed according to the methods reported by Matsuura and colleagues with slight modification. In all experiments, about 500 µl of Bovine serum albumin (1mg/ml final concentration) was incubated with 400 µl of glucose (500 mM) in the presence of 100 µl of test compounds, aminoguanidine or PBS as control buffer at different concentrations, The reaction was allowed to proceed at 60°C for 24hrs and thereafter reaction was stopped by adding 10 µl of 100% (w/v) trichloroacetic acid (TCA). Then the mixture was kept at 4°C for 10 min before subjected to centrifugation at 15,000 rpm. The precipitate was redissolved in 1ml alkaline PBS (pH10) and immediately quantified for relative amount of glycated BSA based on fluorescence intensity by spectrofluorometer LS-55 (Perkin Elmer) at 370 nm (excitation) and 440 nm (emission). Aminoguanidine was used as a positive control. Percentage inhibition was calculated. All experiments were performed in triplicate.

[1] = molecular target: T1, brain AChE (rat cortex homogenate) (Rattus norvegicus, UniProt P37136); assay: biochemical
T1 construct: homogenate was used as the resource of AChE; from tissue; host or cells: rat cortex homogenate
T1 sequence (P37136 32-614): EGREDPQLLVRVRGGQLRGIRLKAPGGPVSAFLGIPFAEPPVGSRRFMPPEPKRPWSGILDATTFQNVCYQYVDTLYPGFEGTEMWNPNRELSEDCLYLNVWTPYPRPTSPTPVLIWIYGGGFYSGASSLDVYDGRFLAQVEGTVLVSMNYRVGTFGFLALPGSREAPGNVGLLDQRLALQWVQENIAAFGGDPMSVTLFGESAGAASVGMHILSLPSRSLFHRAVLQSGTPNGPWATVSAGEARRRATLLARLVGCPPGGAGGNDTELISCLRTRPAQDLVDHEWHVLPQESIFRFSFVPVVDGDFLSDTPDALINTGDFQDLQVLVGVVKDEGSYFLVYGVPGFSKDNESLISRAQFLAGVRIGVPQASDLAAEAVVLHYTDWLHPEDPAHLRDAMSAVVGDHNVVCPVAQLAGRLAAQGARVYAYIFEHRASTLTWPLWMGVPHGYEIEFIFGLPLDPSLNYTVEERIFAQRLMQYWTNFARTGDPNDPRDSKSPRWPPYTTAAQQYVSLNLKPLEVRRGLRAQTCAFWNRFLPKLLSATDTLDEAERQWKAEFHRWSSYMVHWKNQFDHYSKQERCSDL
Method: The ability of target compounds PS(1–10) to inhibit AChE was evaluated by the slightly modified Ellman’s method. The objective of attaching different amines to the 1,3-diphenylprop-2-enone skeleton via an ethoxy spacer was to enhance the interaction of the designed synthesized chalcones with both the PAS and CAS of AChE.
The inhibitory potential of synthesized compounds was evaluated for brain AChE by the widely used Ellman et al. process. The method involved using spectroscopic investigation at 450 nm. All the compounds with different concentrations were evaluated in triplicate including donepezil (standard AChE inhibitor).
In vitro inhibition of AChE
The inhibitory potency of target compounds on AChE was determined using spectroscopic […]
homogenate was used as the resource of AChE. For assay of AChE activity, a reaction mixture containing 100μl acetylthiocholine iodide 0.075M/L, 100μl sodium phosphate buffer (0.1M/L, pH 7.4), 20μl homogenate or serum and different concentrations of test compounds 20μl was incubated at 37° C for 15 min. The reaction was terminated by adding 50μl 3% sodium lauryl sulfate, then, 50μl, 0.2% of 5,5’–dithio-bis- (2-nitrobenzoic acid) (DTNB, 10 mg DTNB in 100 mL of Sorenson phosphate buffer, pH 8.0) was added to produce the yellow anion of 5-thio-2-nitro-benzoic acid. Assays were carried out with a blank containing all components except AChE in order to account for non-enzymatic reaction. The values of IC 50 were calculated by UV spectroscopy from the absorbance changes at 450 nm. A positive control of donepezil was used in the same range of concentrations. Each concentration was analyzed in triplicate. Data from concentration–inhibition experiments of the inhibitors were calculated by nonlinear regression analysis, using the GraphPad Prism 5 program. […]

[2] = Free radical scavenging activity (DPPH, Blois method); conditions: n = 3, read-out: Radical Scavenging Activity (EC50, Mean ± SD)
Method: The activity was tested using the spectrophotometric Blois method.
Radical scavenging activity (DPPH Method)
The stable 1, 1-diphenyl-2-picryl hydrazyl radical (DPPH) was used for determination of free radical-scavenging activity of the test compounds. The 0.1 mM solution of DPPH in methanol (39.4 mg in 1000 ml) was freshly prepared. Different concentrations of test compounds were added with an equal volume to methanol solution of DPPH. After 30 min at room temperature, the absorbance was recorded at 517 nm. Ascorbic acid was used as standard. IC50 values denote the concentration of sample, which is required to scavenge 50% of DPPH free radicals. IC50 value was determined from the plotted graph of scavenging activity against the different concentrations of test compounds. Ascorbic acid was applied as positive drug (Blois, 1958).

[3] = system: STZ-induced cognitive impairment in rats; assay: Morris Water Maze in STZ-induced dementia; type: in vivo, Wistar rats; conditions: STZ i.c.v. 3 mg/kg rats; PS10 2, 5, 10 mg/kg p.o., day 9 to 22
Method: The STZ model (i.c.v., 3 mg/kg) is commonly used to study AD in animals. The intracerebroventricular injection of STZ, at two sub-diabetogenic doses, induces a range of symptoms including impaired cognition, metabolic and molecular changes, and neuropathological symptoms in rodents which are often found in AD subjects. […] The ROS produced can cause damage to the myelin sheath and acetyl coenzyme-A in the hippocampus. As a result, there is an increase in AChE activity, leading to behavioral disturbances, as in Alzheimer’s disease. Thus, this model is frequently used for AD interventions.
MWM is the most commonly used method to measure learning and spatial memory in rats. MWM utilizes the natural swimming ability of rats. As a result, during the retrieval phase, there is no induced stress that could affect the results. The MWM model is commonly used to test drugs that enhance memory and provide neuroprotection. Thus, it has been used to understand the effect of PS10 on the memory of animals with induced cognitive impairment by means of restoring the ELT.
To induce cognitive impairment in rats, solutions of Streptozotocin (STZ, 3 mg/kg) in artificial cerebro-spinal fluid (ACSF) were given as i.c.v. (intracerebroventricular) injections. The STZ injections were administered bilaterally on days 1 and 3 of the experimental protocol. […]

brain AChE = molecular target: T2, brain AChE (Rattus norvegicus, UniProt P37136); assay: Brain AChE activity in STZ-treated rats (brain homogenate); type: in vivo; conditions: STZ i.c.v. rats; PS10 2, 5, 10 mg/kg p.o.
T2 construct: from tissue; host or cells: brain homogenate of STZ-treated Wistar rats
T2 sequence (P37136 32-614): T1 sequence (P37136 32-614)
Excerpt: The central cholinergic system is critical for cognitive function, and AD patients often suffer from cholinergic hypofunction due to increased AChE activity and the degeneration of cholinergic neurons. Animal studies have shown that the administration of STZ (i.c.v) increases brain AChE activity, which leads to cognitive impairment and memory deficits. […]. Possibly, due to these interactions between PS10 and amino acids of AChE, PS10 was able to inhibit AChE activity.
(§1) Groups IV, V, and VI (STZ + PS10): Following intracerebroventricular injections of STZ, animal groups were administered different doses of PS10 (2, 5, and 10 mg/kg, p.o., respectively), from 9 to 22 days.
(§2) After the behavioral experiment was completed, the rats were euthanized under mild anesthesia using cervical dislocation, and their brains were extracted. The homogenates were made in a buffer (pH 7.4) for further analysis. AChE activity, total protein levels, reduced GSH levels, and thiobarbituric acid reactive species (TBARS) levels were measured using the brain homogenates.

[4] = system: brain GSH and TBARS levels; assay: Brain oxidative stress markers (GSH, TBARS) in STZ-treated rats; type: in vivo, Wistar rats; conditions: STZ i.c.v. rats; PS10 2, 5, 10 mg/kg p.o.
Excerpt: Another crucial factor that contributes to the progression of AD is oxidative stress. The brain is more vulnerable to oxidative damage compared to other organs due to its high energy demand, relatively lower level of antioxidant defense mechanisms, and high concentration of polyunsaturated fatty acids. STZ injection generates free radicals that overwhelm the brain’s defensive antioxidant system (GSH) and cause lipid membrane oxidation, leading to the production of malondialdehyde. Thus, in order to analyze the antioxidant property of PS10, the levels of TBARS and GSH were measured in the current investigation (Figure 6).
as §1, §2

[5] = n = 3, rat cortex homogenate, read-out: AChE Inhibitory Activity (IC50, Mean ± SD)

Compound | IC50 (AGE formation) | IC50 [1, 5] | EC50 [2] | other results
N=C(N)NN [Aminoguanidine (AG), Aminoguanidine, reference compound] | 44.3 ± 0.12 µM |  |  | 
O=C(C=Cc1ccc(OCCN2CCCCC2)cc1)c1ccccc1 [PS5, 1-Phenyl-3-(4-(2-(piperidin-1-yl)ethoxy)phenyl)prop-2-en-1-one] | 55.3 ± 0.2 µM | 0.0197 ± 0.0003 µM | 0.0344 ± 0.0004 µM | 
O=C(C=Cc1ccc(OCCN2CCCC2)cc1)c1ccccc1 [PS8, 1-Phenyl-3-(4-(2-(pyrrolidin-1-yl)ethoxy)phenyl)prop-2-en-1-one] | 65.41 ± 0.36 µM | 0.03272 ± 0.00012 µM | 0.04864 ± 0.00018 µM | 
O=C(C=Cc1ccc(O)cc1)c1ccccc1 [PS1, 3-(4-Hydroxyphenyl)-1-phenylprop-2-en-1-one] | 43.6 ± 0.08 µM |  | 0.0224 ± 0.0004 µM | IC50 [1]: 0.0365 ± 0.00042 µM
O=C(C=Cc1ccc(OCCn2ccnc2)cc1)c1ccccc1 [PS9, 3-(4-(2-(1H-Imidazol-1-yl)ethoxy)phenyl)-1-phenylprop-2-en-1-one] | 65.7 ± 0.17 µM | 0.0263 ± 0.0003 µM | 0.04858 ± 0.00042 µM | 
CN(C)CCOc1ccc(C=CC(=O)c2ccccc2)cc1 [PS2, 3-(4-(2-(Dimethylamino)ethoxy)phenyl)-1-phenylprop-2-en-1-one] | 68.6 ± 0.23 µM | 0.05251 ± 0.0002 µM | 0.04985 ± 0.00011 µM | 
O=C1O[C@H]([C@@H](O)CO)C(O)=C1O [Ascorbic acid, reference compound] |  |  | 0.0217 ± 8e-05 µM | 
O=C(C=Cc1ccc(OCCN2CCNCC2)cc1)c1ccccc1 [PS6, 1-Phenyl-3-(4-(2-(piperazin-1-yl)ethoxy)phenyl)prop-2-en-1-one] | 64.51 ± 0.2 µM | 0.0214 ± 0.0008 µM | 0.0467 ± 0.00024 µM | 
CN(CCOc1ccc(C=CC(=O)c2ccccc2)cc1)Cc1ccccc1 [PS4, 3-(4-(2-(Benzyl(methyl)amino)ethoxy)phenyl)-1-phenylprop-2-en-1-one] | 69.39 ± 0.2 µM | 0.0488 ± 4e-05 µM | 0.04948 ± 0.00021 µM | 
CN1CCN(CCOc2ccc(C=CC(=O)c3ccccc3)cc2)CC1 [PS10, 3-(4-(2-(p-Methylpiperazin-1-yl)ethoxy)phenyl)-1-phenylprop-2-en-1-one] | 49.85 ± 0.13 µM | 0.0153 ± 0.00072 µM | 0.02283 ± 0.0002 µM | ELT (escape latency time) in MWM [3]: significantly decreased STZ-induced cognitive impairment; TSTQ (time spent in target quadrant) in MWM [3]: significantly decreased STZ-induced cognitive impairment; brain AChE activity (brain AChE): restored; brain GSH level [4]: reversed; brain TBARS levels [4]: reversed
O=C(C=Cc1ccc(OCCN2CCOCC2)cc1)c1ccccc1 [PS7, 3-(4-(2-Morpholinoethoxy)phenyl)-1-phenylprop-2-en-1-one] | 51.2 ± 0.8 µM | 0.02272 ± 0.00013 µM | 0.03765 ± 0.00024 µM | 
CCN(CC)CCOc1ccc(C=CC(=O)c2ccccc2)cc1 [PS3, 3-(4-(2-(Diethylamino)ethoxy)phenyl)-1-phenylprop-2-en-1-one] | 67.3 ± 0.33 µM | 0.0475 ± 0.00021 µM | 0.04941 ± 0.00022 µM | 
